Like-named read-outs stand apart in the source and are kept apart here.
Legend:
5-HT1A receptors = biological target: T1, 5-HT1A receptors (Rattus norvegicus, UniProt P19327); test: Inhibition of 3H-8-OH-DPAT binding to serotonin 5-HT1A receptors in rat brain in vitro
T1 construct: 5-HT1A receptors in membranes from rat brain minus cerebellum; from tissue; host or cells: rat brain minus cerebellum, membranes
T1 sequence (P19327 1-422): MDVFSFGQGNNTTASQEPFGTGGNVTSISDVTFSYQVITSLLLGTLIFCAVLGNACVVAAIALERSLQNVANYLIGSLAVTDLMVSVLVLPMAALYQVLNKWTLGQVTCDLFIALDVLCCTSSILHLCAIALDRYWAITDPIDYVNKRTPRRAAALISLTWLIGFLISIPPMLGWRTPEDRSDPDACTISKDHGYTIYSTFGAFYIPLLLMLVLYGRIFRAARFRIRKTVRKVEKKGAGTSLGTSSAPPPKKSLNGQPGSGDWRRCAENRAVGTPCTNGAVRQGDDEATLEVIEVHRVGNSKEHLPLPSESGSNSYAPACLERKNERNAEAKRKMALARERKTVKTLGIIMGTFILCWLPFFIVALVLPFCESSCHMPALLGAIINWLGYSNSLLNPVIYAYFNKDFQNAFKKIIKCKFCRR
Protocol: By this method the inhibition by drugs of the binding of the 5-HT1A agonist ^3H-8-OH-DPAT (1 nM) to 5-HT1A receptors in membranes from rat brain minus cerebellum is determined in vitro . Accordingly, this is a test for affinity for the 5-HT1A receptor. The test is performed as described by Hyttel et al., Drug. Dev. Res., 1988, 15, 389-404.

5-HT2A receptors = biological target: T2, 5-HT2A receptors (Rattus norvegicus, UniProt P14842); test: Inhibition of 3H-Ketanserin binding to 5-HT2 receptors in rat cortex in vitro
T2 construct: 5-HT2A receptors in membranes from rat is determined in vitro; from tissue; host or cells: rat cortex membranes
T2 sequence (P14842 whole entry): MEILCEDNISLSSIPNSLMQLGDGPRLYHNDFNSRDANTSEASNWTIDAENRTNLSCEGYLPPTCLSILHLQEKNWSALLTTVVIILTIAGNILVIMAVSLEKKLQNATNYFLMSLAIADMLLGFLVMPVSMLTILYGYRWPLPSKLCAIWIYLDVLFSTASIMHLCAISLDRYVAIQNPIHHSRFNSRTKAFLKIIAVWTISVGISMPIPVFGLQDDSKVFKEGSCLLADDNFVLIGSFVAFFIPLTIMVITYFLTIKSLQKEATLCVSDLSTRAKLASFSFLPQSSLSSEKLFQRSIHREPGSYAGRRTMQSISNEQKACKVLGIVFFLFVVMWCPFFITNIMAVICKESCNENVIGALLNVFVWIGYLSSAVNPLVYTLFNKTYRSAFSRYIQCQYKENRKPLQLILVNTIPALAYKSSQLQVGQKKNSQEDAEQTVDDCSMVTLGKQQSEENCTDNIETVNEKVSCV
Protocol: Inhibition of ^3H-Ketanserin Binding to 5-HT2 Receptors in Rat Cortex in vitro.
By this method the inhibition by drugs of the binding of ^3H-Ketanserin (0.5 nM) to 5-HT2A receptors in membranes from rat is determined in vitro .

[1] = 3H-8-OH-DPAT 1 nM, membranes from rat brain minus cerebellum, read-out: 3H 8-OH DPAT (5-HT1A) binding, IC50
[2] = 3H-Ketanserin 0.5 nM, membranes from rat cortex, read-out: 3H Ketanserin (5-HT2A) binding, IC50

| Structure (SMILES) | IC50 (5-HT1A receptors; [1]) | IC50 (5-HT2A receptors; [2]) | other results |
| --- | --- | --- | --- |
| CC(=O)Nc1ccc2c(c1)C(CN1CC=C(c3cn(C)c4cc(Cl)ccc34)CC1)CC2 (stereo not drawn) [Compound 15a, 3-[1-(6-Acetylaminoindan-1-ylmethyl)-1,2,3,6-tetrahydropyridin-4-yl]-6-chloro-1-methyl-1H-indole] | 91 nM | – | inhibition at 0.1 µM (5-HT2A receptors; read-out: 3H Ketanserin (5-HT2A) binding, % inhibition of binding at 100 nM, at 100 nM, 3H-Ketanserin 0.5 nM, rat cortex membranes): 25%; melting point: 189 to 193 °C |
| CC(=O)Nc1ccc2c(c1)C(CN1CC=C(c3c[nH]c4ccc(Cl)cc34)CC1)CC2 (stereo not drawn) [Compound 11g, 3-[1-(6-Acetylaminoindan-1-ylmethyl)-1,2,3,6-tetrahydropyridin-4-yl]-5-chloro-1H-indole] | – | 180 nM | IC50 (5-HT1A receptors): 26 nM |
| CC(=O)Nc1ccc2c(c1)C(CN1CCC(c3c[nH]c4cc(Cl)ccc34)CC1)CC2 (stereo not drawn) [Compound 11f, 3-[1-(6-Acetylaminoindan-1-ylmethyl)piperidin-4-yl]-6-chloro-1H-indole] | 8 nM | 21 nM | – |
| COc1ccccc1N1CCN(CC2CCc3ccc(NC(C)=O)cc32)CC1 (stereo not drawn) [Compound 4g, 1-(6-Acetylaminoindan-1-ylmethyl)-4-(2-methoxyphenyl)piperazine] | 31 nM | 280 nM | – |
| CS(=O)(=O)Nc1ccc2c(c1)C(CN1CC=C(c3ccc(Cl)cc3)CC1)CC2 (stereo not drawn) [Compound 4m, 4-(4-Chlorophenyl)-1-(6-methansulphonylaminoindan-1-ylmethyl)-1,2,3,6-tetrahydropyperidine] | 120 nM | – | IC50 (5-HT2A receptors): 2.7 nM |
| CC(=O)Nc1ccc2c(c1)C(CN1CCC(c3cn(C)c4cc(Cl)ccc34)CC1)CC2 (stereo not drawn) [Compound 15b, 3-[1-(6-Acetylaminoindan-1-ylmethyl)piperidin-4-yl]-6-chloro-1-m ethyl-1H-indole] | – | 300 nM | inhibition at 0.1 µM (5-HT1A receptors; read-out: 3H 8-OH DPAT (5-HT1A) binding, % inhibition of binding at 100 nM, at 100 nM, 3H-8-OH-DPAT 1 nM, rat brain membranes): 25% |
| O=C1CCCN1c1ccc2c(c1)C(CN1CCC(c3ccc(F)cc3)CC1)CC2 (stereo not drawn) [Compound 12a, 4-(4-Fluorophenyl)-1-[6-(1-pyrrolidin-2-onyl)indan-1-ylmethyl]piperidine] | 340 nM | 3.5 nM | – |
| Nc1ccc2c(c1)C(CN1CCC(c3ccc(F)cc3)CC1)CC2 (stereo not drawn) [Compound 2a] | 480 nM | 2.5 nM | – |
| CC(=O)Nc1ccc2c(c1)C(CN1CCC(c3c[nH]c4ccc(F)cc34)CC1)CC2 (stereo not drawn) [Compound 11c, 3-[1-(6-Acetylaminoindan-1-ylmethyl)piperidin-4-yl]-5-fluoro-1H-indole] | 16 nM | 15 nM | – |

Continued, in another order:

| IC50 (5-HT1A receptors; [1]) | IC50 (5-HT2A receptors; [2]) | Structure (SMILES) | other results |
| --- | --- | --- | --- |
| 28 nM | 2.3 nM | CC(=O)Nc1ccc2c(c1)C(CN1CCC(c3ccc(F)cc3)CC1)CS2 (stereo not drawn) [Compound 4c, 1-(5-Acetylamino-2,3-dihydrobenzothiophen-3-ylmethyl)-4-(4-fluorophenyl)piperidine] | melting point: 140 to 142 °C |
| 21 nM | 2.9 nM | CC(=O)Nc1ccc2c(c1)C(CN1CCN(c3ccc(F)cc3)CC1)CC2 (stereo not drawn) [Compound 4b, 1-(6-Acetylaminoindan-1-ylmethyl)-4-(4-fluorophenyl)piperazine] | melting point: 179 to 187 °C |
| > 1000 nM | 3.9 nM | CNC(=S)Nc1ccc2c(c1)C(CN1CCC(c3ccc(F)cc3)CC1)CC2 (stereo not drawn) [Compound 5c, 4-(4-Fluorophenyl)-1-(6-methylaminothiocarbonylaminoindan-1-ylmethyl)piperidine] | – |
| 170 nM | 1.6 nM | CNc1ccc2c(c1)C(CN1CCC(c3ccc(F)cc3)CC1)CC2 (stereo not drawn) [Compound 16a, 4-(4-Fluorophenyl)-1-(6-methylaminoindan-1-ylmethyl)piperidine] | – |
| 35 nM | 5.1 nM | CNC(=O)Nc1ccc2c(c1)C(CN1CCC(c3ccc(F)cc3)CC1)CC2 (stereo not drawn) [Compound 5a, 4-(4-Fluorophenyl)-1-(6-methylaminocarbonylaminoindan-1-ylmethyl)piperidine] | – |
| 84 nM | 65 nM | CC(=O)Nc1ccc2c(c1)C(CN1CCN(c3ccccc3Cl)CC1)CC2 (stereo not drawn) [Compound 4f, 1-(6-Acetylaminoindan-1-ylmethyl)-4-(2-chlorophenyl)piperazine] | – |

From patent publication US6767907B2, “4-aryl-1-(indanmethyl dihydrobenzofuranmethyl or dihydrobenzothiophenemethyl) piperidines tetrahydropyridines or piperazines” (H. Lundbeck A/S, priority 1994, dated 2004)
